In ChEMBL document CHEMBL1201862, “PubChem BioAssay data set” (2004) one finds IC50 data, which are given here for two compounds.

The structures appear in SMILES notation. Active and inactive are the calls of the source. Cut-off read from the data, not from the text of the source: actives have a measured IC50 and inactives only a lower limit.

In this assay the target is Envelope glycoprotein gp160 (Human immunodeficiency virus 1, UniProt Q6QLK5). The assay is described as follows: inhibitors of HIV fusion peptide binding, primary screen, biochemical, uHTS, fluorescence dequenching (AID 1986).
Sequence of Envelope glycoprotein gp160 (Q6QLK5 whole entry, the tested form may be a part): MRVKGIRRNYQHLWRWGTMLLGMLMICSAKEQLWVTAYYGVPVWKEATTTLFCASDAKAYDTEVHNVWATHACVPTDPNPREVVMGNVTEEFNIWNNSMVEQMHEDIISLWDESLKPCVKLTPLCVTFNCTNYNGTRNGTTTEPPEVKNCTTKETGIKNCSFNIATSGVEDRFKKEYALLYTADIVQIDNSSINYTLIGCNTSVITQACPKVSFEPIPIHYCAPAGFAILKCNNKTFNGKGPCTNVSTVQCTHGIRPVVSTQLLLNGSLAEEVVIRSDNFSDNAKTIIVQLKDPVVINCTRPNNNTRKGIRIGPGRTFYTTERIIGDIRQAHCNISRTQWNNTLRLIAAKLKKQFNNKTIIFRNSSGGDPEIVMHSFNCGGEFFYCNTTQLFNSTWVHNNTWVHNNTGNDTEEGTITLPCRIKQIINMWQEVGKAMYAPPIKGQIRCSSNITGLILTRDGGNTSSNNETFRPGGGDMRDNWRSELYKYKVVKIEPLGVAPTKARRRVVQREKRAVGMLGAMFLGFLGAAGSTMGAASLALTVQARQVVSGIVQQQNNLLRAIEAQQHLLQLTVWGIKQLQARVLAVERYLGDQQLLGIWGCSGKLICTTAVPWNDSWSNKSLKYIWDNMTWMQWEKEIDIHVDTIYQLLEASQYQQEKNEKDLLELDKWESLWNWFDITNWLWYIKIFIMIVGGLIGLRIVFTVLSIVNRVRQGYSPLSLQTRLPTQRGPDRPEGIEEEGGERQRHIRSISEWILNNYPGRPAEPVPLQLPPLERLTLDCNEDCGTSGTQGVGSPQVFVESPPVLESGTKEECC

Usually IC50 stands for the concentration needed to halve the response being measured. In the case of `CN(C)S(=O)(=O)c1cccc(-c2nn(-c3ccccc3)cc2/C=C2\SC(=S)NC2=O)c1`, the 50% inhibitory concentration (IC50) is 11.8 µM (active).
The figure for `COc1cc(C(c2c(C(=O)O)[nH]c3ccccc23)c2c(C(=O)O)[nH]c3ccccc23)ccc1OCc1ccccc1` is 7.01 µM (active).
